Source: ChEMBL document CHEMBL5465560, “Selectivity Literature for EUbOPEN Chemogenomic Library” (2024)

Columns and labels:
[1] = target: Tyrosine-protein kinase receptor Tie-1 (Homo sapiens) (UniProt P35590); settings: at 10 µM
[2] = target: Histone-lysine N-methyltransferase, H3 lysine-79 specific (Homo sapiens, UniProt Q8TEK3); settings: at 10 µM
[3] = target: T1, Aurora kinase A (Homo sapiens) (UniProt O14965); experiment: Selectivity interaction (Kinase panel (Carna Biosciences)) EUB0001542aTs STK6; settings: at 1 µM
T1 sequence (whole entry): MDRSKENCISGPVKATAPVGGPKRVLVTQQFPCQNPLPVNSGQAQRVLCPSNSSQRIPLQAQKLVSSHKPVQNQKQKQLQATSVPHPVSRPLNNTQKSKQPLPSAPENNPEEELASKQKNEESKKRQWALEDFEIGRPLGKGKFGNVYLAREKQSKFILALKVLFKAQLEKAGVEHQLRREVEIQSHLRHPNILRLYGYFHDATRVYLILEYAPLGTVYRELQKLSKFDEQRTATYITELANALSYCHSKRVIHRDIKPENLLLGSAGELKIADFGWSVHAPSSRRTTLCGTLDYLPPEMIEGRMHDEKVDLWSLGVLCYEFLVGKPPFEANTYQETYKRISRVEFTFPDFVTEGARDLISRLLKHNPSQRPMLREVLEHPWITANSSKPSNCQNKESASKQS

[4] = target: Ephrin type-A receptor 2 (Homo sapiens) (UniProt P29317); experiment: Selectivity interaction (Kinase panel (Z-LYTE Assay)) EUB0001632a EPHA2; settings: at 10 µM
[5] = target: T2, Serine/threonine-protein kinase TNNI3K (Homo sapiens) (UniProt Q59H18); experiment: Selectivity interaction (KinomeScan (DiscoverX)) EUB0000595a TNNI3K; settings: at 10 µM
T2 sequence (whole entry): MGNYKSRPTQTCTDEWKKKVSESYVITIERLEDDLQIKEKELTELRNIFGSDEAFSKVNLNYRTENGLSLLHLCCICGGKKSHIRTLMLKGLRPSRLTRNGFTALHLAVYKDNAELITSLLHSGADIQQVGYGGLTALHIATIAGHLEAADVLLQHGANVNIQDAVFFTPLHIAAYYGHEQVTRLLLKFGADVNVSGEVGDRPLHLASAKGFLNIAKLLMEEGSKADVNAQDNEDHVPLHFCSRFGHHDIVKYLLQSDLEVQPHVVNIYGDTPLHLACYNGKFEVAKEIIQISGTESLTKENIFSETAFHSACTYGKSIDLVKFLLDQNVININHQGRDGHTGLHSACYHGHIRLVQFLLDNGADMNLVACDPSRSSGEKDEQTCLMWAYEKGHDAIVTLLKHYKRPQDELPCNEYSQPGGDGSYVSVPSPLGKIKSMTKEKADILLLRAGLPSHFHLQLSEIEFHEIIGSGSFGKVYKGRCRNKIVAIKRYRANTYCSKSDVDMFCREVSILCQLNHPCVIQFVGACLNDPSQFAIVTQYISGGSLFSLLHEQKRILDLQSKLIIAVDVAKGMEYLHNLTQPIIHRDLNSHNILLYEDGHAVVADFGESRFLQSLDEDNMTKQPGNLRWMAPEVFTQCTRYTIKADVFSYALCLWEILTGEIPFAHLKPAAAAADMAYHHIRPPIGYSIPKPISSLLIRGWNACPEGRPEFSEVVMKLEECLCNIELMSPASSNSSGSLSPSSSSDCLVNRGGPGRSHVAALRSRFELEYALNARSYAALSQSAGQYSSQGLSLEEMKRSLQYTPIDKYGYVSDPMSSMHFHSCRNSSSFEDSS

[6] = target: Tyrosine-protein kinase FRK (Homo sapiens) (UniProt P42685); experiment: Selectivity interaction (ProQinase) EUB0000171b FRK
[7] = target: Phosphatidylinositol 4,5-bisphosphate 3-kinase catalytic subunit gamma isoform (Homo sapiens) (UniProt P48736); experiment: Selectivity interaction (KinomeScan (DiscoverX)) EUB0000045b PIK3CG; settings: at 1 µM
[8] = target: G protein-coupled receptor kinase 5 (Homo sapiens, UniProt P34947); experiment: Selectivity interaction (Kinase panel (DSF assay)) EUB0001559a GRK5
[9] = target: Mitogen-activated protein kinase kinase kinase kinase 1 (Homo sapiens) (UniProt Q92918); experiment: Selectivity interaction (KinomeScan (DiscoverX)) EUB0000607a MAP4K1; settings: at 10 µM
[10] = target: T3, Protein kinase C iota type (Homo sapiens) (UniProt P41743); experiment: Selectivity interaction (Kinase panel (KiNativ target engagement assay in Jurkat cells)) EUB0001635a PRKCI; assay type: cell-based; settings: Selectivity number of off-targets 0.0, Selectivity number of targets 233.0, Source Knowledge https://www.sciencedirect.com/science/article/pii/S2451945619300674?via%3Dihub, at 1 µM
T3 sequence (whole entry): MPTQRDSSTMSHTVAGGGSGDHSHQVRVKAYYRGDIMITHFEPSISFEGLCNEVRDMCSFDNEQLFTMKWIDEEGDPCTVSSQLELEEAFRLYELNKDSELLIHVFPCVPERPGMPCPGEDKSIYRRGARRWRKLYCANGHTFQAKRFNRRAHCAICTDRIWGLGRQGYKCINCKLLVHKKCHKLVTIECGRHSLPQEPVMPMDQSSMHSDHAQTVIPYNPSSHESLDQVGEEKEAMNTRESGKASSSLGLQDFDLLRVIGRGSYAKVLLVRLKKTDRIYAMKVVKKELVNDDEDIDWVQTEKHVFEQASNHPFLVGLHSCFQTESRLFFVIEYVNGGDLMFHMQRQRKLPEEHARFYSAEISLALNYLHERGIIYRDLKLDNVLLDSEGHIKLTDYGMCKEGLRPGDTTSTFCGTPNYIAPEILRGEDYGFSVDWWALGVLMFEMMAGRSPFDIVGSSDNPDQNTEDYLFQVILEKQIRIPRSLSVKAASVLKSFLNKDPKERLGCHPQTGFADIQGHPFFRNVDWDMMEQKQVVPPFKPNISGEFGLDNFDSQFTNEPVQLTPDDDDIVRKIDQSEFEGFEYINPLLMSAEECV

[11] = target: Cyclin-dependent kinase 9 (Homo sapiens, UniProt P50750); experiment: Selectivity interaction (KinomeScan (DiscoverX)) EUB0000666a CDK9; settings: at 10 µM
Sequence of Cyclin-dependent kinase 9 (P50750 whole entry): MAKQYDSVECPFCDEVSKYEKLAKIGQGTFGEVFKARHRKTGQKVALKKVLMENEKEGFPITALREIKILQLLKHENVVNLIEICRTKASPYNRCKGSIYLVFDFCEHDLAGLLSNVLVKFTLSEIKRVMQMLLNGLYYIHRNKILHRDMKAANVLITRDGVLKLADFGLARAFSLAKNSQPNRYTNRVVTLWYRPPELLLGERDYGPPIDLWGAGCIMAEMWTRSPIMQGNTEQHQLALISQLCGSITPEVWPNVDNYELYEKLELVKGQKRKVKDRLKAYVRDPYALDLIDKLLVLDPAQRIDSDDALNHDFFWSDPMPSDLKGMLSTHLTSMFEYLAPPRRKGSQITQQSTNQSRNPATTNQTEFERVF

Sequence of Tyrosine-protein kinase FRK (Homo sapiens) (P42685 whole entry, canonical isoform): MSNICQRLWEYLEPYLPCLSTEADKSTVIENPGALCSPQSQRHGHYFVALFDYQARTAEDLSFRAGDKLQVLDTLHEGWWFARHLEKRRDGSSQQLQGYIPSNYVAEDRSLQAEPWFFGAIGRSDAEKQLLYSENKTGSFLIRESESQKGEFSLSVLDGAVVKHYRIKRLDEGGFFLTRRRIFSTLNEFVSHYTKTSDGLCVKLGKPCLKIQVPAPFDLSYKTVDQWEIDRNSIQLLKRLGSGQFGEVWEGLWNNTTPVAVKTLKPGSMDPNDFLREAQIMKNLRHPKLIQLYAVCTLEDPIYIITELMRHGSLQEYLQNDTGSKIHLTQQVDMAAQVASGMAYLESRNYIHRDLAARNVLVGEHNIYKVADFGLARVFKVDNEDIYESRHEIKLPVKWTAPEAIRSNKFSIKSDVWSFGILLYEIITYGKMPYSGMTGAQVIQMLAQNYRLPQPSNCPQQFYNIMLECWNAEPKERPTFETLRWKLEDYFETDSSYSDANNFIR
Sequence of Phosphatidylinositol 4,5-bisphosphate 3-kinase catalytic subunit gamma isoform (Homo sapiens) (P48736 whole entry, looked up, canonical isoform): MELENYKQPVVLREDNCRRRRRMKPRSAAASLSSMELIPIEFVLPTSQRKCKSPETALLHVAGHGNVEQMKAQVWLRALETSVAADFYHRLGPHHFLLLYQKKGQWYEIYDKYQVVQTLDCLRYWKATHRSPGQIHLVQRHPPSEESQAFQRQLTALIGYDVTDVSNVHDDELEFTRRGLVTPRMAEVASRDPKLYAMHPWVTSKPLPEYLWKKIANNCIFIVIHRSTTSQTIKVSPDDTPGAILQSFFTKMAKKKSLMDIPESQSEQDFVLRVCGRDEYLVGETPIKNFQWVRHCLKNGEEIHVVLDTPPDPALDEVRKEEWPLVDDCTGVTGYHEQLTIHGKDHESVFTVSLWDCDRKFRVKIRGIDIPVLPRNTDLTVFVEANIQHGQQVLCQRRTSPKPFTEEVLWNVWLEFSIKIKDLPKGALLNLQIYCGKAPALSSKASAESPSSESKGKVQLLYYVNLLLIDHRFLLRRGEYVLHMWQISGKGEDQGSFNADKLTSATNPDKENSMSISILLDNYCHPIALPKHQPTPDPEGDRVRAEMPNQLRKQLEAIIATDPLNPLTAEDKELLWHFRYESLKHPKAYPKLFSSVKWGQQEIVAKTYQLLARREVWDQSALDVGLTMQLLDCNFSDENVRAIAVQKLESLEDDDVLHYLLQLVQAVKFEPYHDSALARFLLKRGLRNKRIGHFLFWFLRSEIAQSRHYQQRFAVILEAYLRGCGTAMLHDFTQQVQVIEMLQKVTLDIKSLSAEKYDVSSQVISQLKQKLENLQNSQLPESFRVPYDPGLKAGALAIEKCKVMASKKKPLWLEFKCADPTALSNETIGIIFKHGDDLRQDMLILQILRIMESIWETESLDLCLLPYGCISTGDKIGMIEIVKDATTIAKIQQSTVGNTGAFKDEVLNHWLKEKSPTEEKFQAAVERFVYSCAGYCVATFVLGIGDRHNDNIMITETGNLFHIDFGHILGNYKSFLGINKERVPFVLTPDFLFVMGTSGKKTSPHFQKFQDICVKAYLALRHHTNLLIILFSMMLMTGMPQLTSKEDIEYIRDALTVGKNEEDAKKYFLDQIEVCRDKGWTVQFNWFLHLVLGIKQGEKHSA
Sequence of G protein-coupled receptor kinase 5 (P34947 whole entry, looked up): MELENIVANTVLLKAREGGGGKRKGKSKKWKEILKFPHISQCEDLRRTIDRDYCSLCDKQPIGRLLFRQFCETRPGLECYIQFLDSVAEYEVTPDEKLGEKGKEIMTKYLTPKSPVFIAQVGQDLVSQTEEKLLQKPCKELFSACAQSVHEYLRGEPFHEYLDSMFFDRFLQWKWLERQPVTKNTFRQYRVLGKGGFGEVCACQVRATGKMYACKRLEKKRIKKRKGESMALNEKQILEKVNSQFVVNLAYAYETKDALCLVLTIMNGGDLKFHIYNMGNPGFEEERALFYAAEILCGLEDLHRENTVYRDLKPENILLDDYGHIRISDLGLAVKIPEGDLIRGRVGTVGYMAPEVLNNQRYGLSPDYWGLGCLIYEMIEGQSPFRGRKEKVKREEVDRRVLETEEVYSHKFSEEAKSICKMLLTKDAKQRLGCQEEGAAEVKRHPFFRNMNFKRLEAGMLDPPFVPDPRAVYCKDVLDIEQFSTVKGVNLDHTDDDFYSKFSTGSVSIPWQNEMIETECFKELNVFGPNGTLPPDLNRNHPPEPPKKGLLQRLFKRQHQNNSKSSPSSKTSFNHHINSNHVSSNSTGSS
Sequence of Ephrin type-A receptor 2 (Homo sapiens) (P29317 whole entry): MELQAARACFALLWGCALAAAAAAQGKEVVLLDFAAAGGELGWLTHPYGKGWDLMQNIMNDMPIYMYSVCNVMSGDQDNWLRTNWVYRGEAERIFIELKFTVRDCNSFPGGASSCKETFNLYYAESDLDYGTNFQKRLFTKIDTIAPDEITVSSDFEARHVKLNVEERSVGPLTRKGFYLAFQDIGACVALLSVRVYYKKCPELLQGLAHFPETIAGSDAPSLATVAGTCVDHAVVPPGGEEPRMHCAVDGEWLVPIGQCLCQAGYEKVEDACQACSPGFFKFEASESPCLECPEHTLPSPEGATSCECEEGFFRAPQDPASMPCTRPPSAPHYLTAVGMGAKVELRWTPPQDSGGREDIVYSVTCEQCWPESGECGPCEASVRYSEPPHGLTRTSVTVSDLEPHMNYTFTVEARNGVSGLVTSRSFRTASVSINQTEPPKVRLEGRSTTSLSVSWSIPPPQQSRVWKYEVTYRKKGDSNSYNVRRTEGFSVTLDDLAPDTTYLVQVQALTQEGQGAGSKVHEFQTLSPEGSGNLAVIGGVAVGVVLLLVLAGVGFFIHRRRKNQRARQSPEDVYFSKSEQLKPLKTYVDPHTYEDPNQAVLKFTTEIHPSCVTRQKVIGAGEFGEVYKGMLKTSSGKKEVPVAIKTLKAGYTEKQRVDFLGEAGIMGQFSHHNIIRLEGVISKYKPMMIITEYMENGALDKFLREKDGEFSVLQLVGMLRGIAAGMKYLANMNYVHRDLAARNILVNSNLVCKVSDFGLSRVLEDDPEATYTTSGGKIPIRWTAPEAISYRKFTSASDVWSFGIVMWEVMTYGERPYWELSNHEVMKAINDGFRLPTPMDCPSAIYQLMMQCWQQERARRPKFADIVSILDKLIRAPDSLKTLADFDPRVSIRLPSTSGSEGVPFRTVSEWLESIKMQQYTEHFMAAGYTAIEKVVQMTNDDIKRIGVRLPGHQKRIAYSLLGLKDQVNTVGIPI
Sequence of Mitogen-activated protein kinase kinase kinase kinase 1 (Homo sapiens) (Q92918 whole entry, looked up): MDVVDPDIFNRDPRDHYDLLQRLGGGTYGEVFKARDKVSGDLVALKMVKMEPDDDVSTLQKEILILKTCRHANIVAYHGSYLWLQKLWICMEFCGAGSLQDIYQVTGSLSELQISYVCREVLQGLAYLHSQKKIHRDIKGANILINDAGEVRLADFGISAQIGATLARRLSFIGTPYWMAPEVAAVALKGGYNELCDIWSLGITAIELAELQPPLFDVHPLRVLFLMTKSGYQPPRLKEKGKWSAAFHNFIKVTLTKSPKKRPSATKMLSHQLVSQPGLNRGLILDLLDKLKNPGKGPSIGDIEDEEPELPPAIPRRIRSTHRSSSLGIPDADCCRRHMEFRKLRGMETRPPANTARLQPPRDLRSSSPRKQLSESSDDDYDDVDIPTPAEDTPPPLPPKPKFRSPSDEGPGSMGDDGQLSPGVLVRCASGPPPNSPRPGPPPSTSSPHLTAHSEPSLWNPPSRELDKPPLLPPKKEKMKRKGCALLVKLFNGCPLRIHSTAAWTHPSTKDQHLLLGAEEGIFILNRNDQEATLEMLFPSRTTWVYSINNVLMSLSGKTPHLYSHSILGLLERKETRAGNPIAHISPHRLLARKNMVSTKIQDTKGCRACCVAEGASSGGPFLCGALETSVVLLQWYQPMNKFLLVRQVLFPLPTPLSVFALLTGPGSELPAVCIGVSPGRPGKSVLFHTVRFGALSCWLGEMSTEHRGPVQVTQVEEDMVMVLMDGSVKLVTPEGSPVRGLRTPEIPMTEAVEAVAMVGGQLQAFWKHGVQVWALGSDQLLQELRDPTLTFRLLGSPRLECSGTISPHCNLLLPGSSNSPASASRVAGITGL

`Cc1cc([C@@H](C)Nc2ccccc2C(=O)O)c2nc(N3CCOCC3)cc(=O)n2c1` [AZD-6482] showed a % of control [1] of 100%.

With `CNCCN1CCC(c2cc(CN(C)C(=O)c3cccc(Oc4ccccc4)c3)ccn2)CC1` the % activity [2] was greater than 90%.

For `Cn1cc(Nc2nccc(N3CC4CCC(C3)N4C(=O)[C@@H]3CC3(F)F)n2)cn1`, the % of inhibition [3] was 97%.

For `Cn1cc(-n2cnc3c(NCc4nc5cc(Cl)c(Cl)cc5[nH]4)nc(N4CCOCC4)nc32)cn1`, the % of control [4] was 14.4%.

`COCC(=O)NC/C=C/c1ccc2ncnc(Nc3ccc(Oc4ccc(C)nc4)c(C)c3)c2c1` [CP-724714] gave a % of control [5] of 100%.

With `C=CC(=O)Nc1cccc(C(=O)Nc2ccc(Nc3cc(-c4[nH]c(SC)nc4C)ccn3)cc2)c1` the % of control ([6]; at 1 µM) was 99% and the % of control ([6]; at 5 µM) was 75%.

`C=CC(=O)Nc1cc(-n2c(=O)ccc3cnc4ccc(-c5ccc(NS(C)(=O)=O)cc5)cc4c32)ccc1C` was tested, and the % of control [7] was 2.8%.

With `CN(C(=O)c1cnn2cccnc12)c1cc2c(cc1N1CCOCC1)C(=O)N(C[C@@H](F)C(C)(C)O)C2` the dTM [8] was 0 K.

`CNC(=O)Nc1ccc(-c2nc(N3CC4CCC(C3)O4)c3cnn(C4CCC5(CC4)OCCO5)c3n2)cc1` was tested, and the % of control [9] was 94%.

With `C=CC(=O)Nc1ccc(C(=O)Nc2[nH]nc3c2CN(C(=O)N[C@H](CN(C)C)c2ccccc2)C3(C)C)cc1` the % of engagement [10] was 9.5%.

With `O=C(NOC[C@H](O)CO)c1ccc(F)c(F)c1Nc1ccc(I)cc1F` the % of control [11] was 76%.
